Data published in ChEMBL document CHEMBL6120938, “Covalent small-molecule inhibitors of SARS-CoV-2 Mpro: Insights into their design, classification, biological activity, and binding interactions” (Eur J Med Chem, 2024).

test system: not listed separately; assay: Inhibition of C-terminal GST-tagged SARS-CoV-2 Main protease extracted from Escherichia coli BL21 (DE3) measured for 60 mins by FRET assay; design: species or system Severe acute respiratory syndrome coronavirus 2; conditions: not given

**Q.** Which IC50 does the source give for `O=c1c2cccc([N+](=O)[O-])c2[se]n1Cc1ccccc1` here?
**A.** 2010 nM

target: T1, Replicase polyprotein 1ab (Severe acute respiratory syndrome coronavirus 2, UniProt P0DTD1); assay: Inhibition of SARS-CoV-2 3CL protease by luciferase reporter assay; conditions: not given

**Q.** With `C=CC(=O)O[C@H](CC)C(=O)NCCc1c[nH]c2ccccc12` as the compound, how does the IC50 read?
**A.** 139 µM

**Q.** With `C=CC(=O)N(CCC)[C@H](C(=O)NCc1ccc2c(c1)OCO2)c1cccc(O)c1` as the compound, how does the IC50 read?
**A.** 1 µM

**Q.** For `O=C(CCl)Nc1sc(-c2ccccc2)cc1C(=O)NC1CC1`, which IC50 is on record?
**A.** 2.36 µM

**Q.** With `C=CC(=O)O[C@H](C(=O)NCc1cccc(OC)c1OC)c1ccc([N+](=O)[O-])cc1` as the compound, how does the IC50 read?
**A.** 9.39 µM

test system: not listed separately; assay: Inhibition of SARS-CoV-2 MPro using Dabcyl-KTSAVLQSGFRKME-Edans as substrate preincubated for 30 mins followed by substrate addition and measured after 60 mins by fluorescence based assay; design: species or system Severe acute respiratory syndrome coronavirus 2; conditions: not given

**Q.** For `O=C(NCc1ccccn1)C(=O)[C@@H](Cc1ccccc1)NC(=O)[C@H]1CCC(=O)N1Cc1ccccc1`, which IC50 is on record?
**A.** 3000 nM

test system: not listed separately; assay: Inhibition of MERS-CoV 3CLpro by FRET assay; design: species or system Middle East respiratory syndrome-related coronavirus; conditions: not given

**Q.** With `CC(C)C[C@H](NC(=O)OC[C@@H]1C[C@H]1c1cccc(F)c1)C(=O)N[C@@H](CC1CCNC1=O)C(O)S(=O)(=O)O` (some centres undefined) as the compound, how does the IC50 read?
**A.** 70 nM

**Q.** For `COc1ccccc1[C@@H]1C[C@H]1COC(=O)N[C@@H](CC(C)C)C(=O)N[C@@H](CC1CCNC1=O)C(O)S(=O)(=O)O` (some centres undefined), which IC50 is on record?
**A.** 70 nM

**Q.** For `COc1ccccc1[C@@H]1C[C@H]1COC(=O)N[C@@H](CC(C)C)C(=O)N[C@H](C=O)CC1CCNC1=O` (some centres undefined), which IC50 is on record?
**A.** 70 nM

**Q.** With `CC(C)C[C@H](NC(=O)OC[C@@H]1C[C@H]1c1cccc(F)c1)C(=O)N[C@H](C=O)CC1CCNC1=O` (some centres undefined) as the compound, how does the IC50 read?
**A.** 70 nM

test system: not listed separately; assay: Inhibition of SARS-Cov-2 Main protease by FRET assay; design: species or system Severe acute respiratory syndrome coronavirus 2; conditions: not given

**Q.** With `CCOC(=O)/C=C/[C@H](C[C@@H]1CCNC1=O)NC(=O)[C@H](CC#N)n1cccc(NC(=O)c2cc(C)on2)c1=O` as the compound, how does the IC50 read?
**A.** 101 µM

test system: SARS-CoV-2; assay: Antiviral activity against SARS-CoV-2 infected in African green monkey Vero E6 cells assessed as reduction in viral replication incubated for 72 hrs by RT-qPCR analysis; format: functional, organism-based; conditions: Severe acute respiratory syndrome coronavirus 2, Vero C1008, 72 h

**Q.** For `CC[C@H](NC[C@H](CS(=O)(=O)CC1CC1)N[C@@H](c1ccc(F)cc1)C(F)(F)F)C(=O)C(=O)NC1CC1`, which EC50 is on record?
**A.** 300 nM

target: T1, Replicase polyprotein 1ab; assay: Inhibition of N-terminal 6His-tagged SARS-CoV-2 3CL protease using FAM-SAVLQ as substrate pre-incubated for 15 mins followed by substrate addition and incubated for 30 mins by FRET analysis; conditions: not given

**Q.** For `CC(C)C[C@H](NC(=O)OC[C@@H]1C[C@H]1c1cccc(Cl)c1)C(=O)N[C@H](C=O)C[C@H]1CCNC1=O`, which IC50 is on record?
**A.** 170 nM

**Q.** For `CCC[C@@H]1C[C@H]1COC(=O)N[C@@H](CC(C)C)C(=O)N[C@@H](C[C@H]1CCNC1=O)[C@@H](O)S(=O)(=O)O`, which IC50 is on record?
**A.** 170 nM

**Q.** With `CC(C)C[C@H](NC(=O)OC[C@@H]1C[C@H]1c1ccccc1)C(=O)N[C@H](C=O)C[C@H]1CCNC1=O` as the compound, how does the IC50 read?
**A.** 170 nM

**Q.** For `CC(C)C[C@H](NC(=O)OC[C@@H]1C[C@H]1C1CCC(F)(F)CC1)C(=O)N[C@@H](C[C@H]1CCNC1=O)[C@H](O)S(=O)(=O)O`, which IC50 is on record?
**A.** 170 nM

**Q.** For `COc1ccc([C@@H]2C[C@H]2COC(=O)N[C@@H](CC(C)C)C(=O)N[C@@H](C[C@H]2CCNC2=O)[C@@H](O)S(=O)(=O)O)cc1`, which IC50 is on record?
**A.** 170 nM

**Q.** Which IC50 does the source give for `CC(C)C[C@H](NC(=O)OC[C@@H]1C[C@H]1C1CCCCC1)C(=O)N[C@@H](C[C@H]1CCNC1=O)[C@H](O)S(=O)(=O)O` here?
**A.** 170 nM

test system: SARS-CoV-2; assay: Antiviral activity against SARS-CoV-2 infected in Vero E6 cells assessed as reduction in viral replication; format: functional, organism-based; conditions: Severe acute respiratory syndrome coronavirus 2, Vero C1008

**Q.** Which EC50 does the source give for `Cc1cc(C(=O)N[C@@H](C)C(=O)N[C@H](C(=O)N[C@@H](CC(C)C)[C@H](/C=C/C(=O)OCc2ccccc2)C[C@@H]2CCNC2=O)C(C)C)no1` here?
**A.** 16.8 µM

**Q.** For `Cc1ccc(C(=O)C(C)CN2CCCCC2)cc1` (centres undefined) [TOLPERISONE], which EC50 is on record?
**A.** 19.2 µM

**Q.** For `O=C1c2ccccc2CCC1CNCCc1ccc(O)cc1` (centres undefined), which EC50 is on record?
**A.** 24.1 µM

**Q.** With `O=C[C@H](C[C@@H]1CCNC1=O)NC(=O)[C@@H]1[C@H]2CCC[C@H]2CN1C(=O)CCc1ccc(Cl)cc1Cl` as the compound, how does the EC50 read?
**A.** 0.54 µM

target: T1, Replicase polyprotein 1ab; assay: Inhibition of SARS-CoV-2 3CL protease; conditions: not given

**Q.** With `CCC1(OC(=O)N[C@@H](CC(C)C)C(=O)N[C@H](C=O)C[C@@H]2CCNC2=O)COCOC1` as the compound, how does the IC50 read?
**A.** 450 nM

**Q.** For `C=CS(=O)(=O)N(c1ccc(C(C)(C)C)cc1)C(C(=O)NCCc1cccc(Cl)c1)c1cccnc1` (centres undefined), which IC50 is on record?
**A.** 0.17 nM

**Q.** For `CCC1CCC(OC(=O)N[C@@H](CC(C)C)C(=O)N[C@H](C=O)C[C@@H]2CCNC2=O)CC1` (some centres undefined), which IC50 is on record?
**A.** 1100 nM

**Q.** With `S=C(S)NCc1cccnc1` as the compound, how does the IC50 read?
**A.** 30 nM

**Q.** For `C=CS(=O)(=O)N(c1ccc(C(C)(C)C)cc1)C(C(=O)NCCc1cccc(OC)c1)c1cccnc1` (centres undefined), which IC50 is on record?
**A.** 240 nM

**Q.** Which IC50 does the source give for `CC(C)C[C@H](NC(=O)OCC1CCC(F)(F)CC1)C(=O)N[C@@H](C[C@@H]1CCNC1=O)C(O)S(=O)(=O)O` (some centres undefined) here?
**A.** 100 nM

**Q.** With `CC(C)C[C@H](NC(=O)OC[C@@H]1C[C@H]1C1CCCCC1)C(=O)N[C@@H](C[C@H]1CCNC1=O)[C@H](O)S(=O)(=O)O` as the compound, how does the IC50 read?
**A.** 280 nM

target: T1, Replicase polyprotein 1ab; assay: Inhibition of SARS-CoV-2 3CL protease using DabcylKTSAVLQSGFRKME-Edans amide as substrate measured for 1 hrs by FRET assay; conditions: not given

**Q.** For `CC(C)C[C@H](NC(=O)OC[C@@H]1C[C@H]1c1cccc(F)c1)C(=O)N[C@@H](CC1CCNC1=O)C(O)S(=O)(=O)O` (some centres undefined), which IC50 is on record?
**A.** 140 nM

**Q.** For `COc1ccccc1[C@@H]1C[C@H]1COC(=O)N[C@@H](CC(C)C)C(=O)N[C@@H](CC1CCNC1=O)C(O)S(=O)(=O)O` (some centres undefined), which IC50 is on record?
**A.** 140 nM

**Q.** With `COc1ccccc1[C@@H]1C[C@H]1COC(=O)N[C@@H](CC(C)C)C(=O)N[C@H](C=O)CC1CCNC1=O` (some centres undefined) as the compound, how does the IC50 read?
**A.** 140 nM

**Q.** For `CC(C)C[C@H](NC(=O)OC[C@@H]1C[C@H]1c1cccc(F)c1)C(=O)N[C@H](C=O)CC1CCNC1=O` (some centres undefined), which IC50 is on record?
**A.** 140 nM

test system: not listed separately; assay: Inhibition of SARS-CoV-2 Main protease using DABCYL-KTSAVLQ-SGFRKM-E(EDANS) as substrate pre-treated for 15 mins and measured for 60 mins by FRET assay; design: species or system Severe acute respiratory syndrome coronavirus 2; conditions: not given

**Q.** Which IC50 does the source give for `O=Cc1ncc(Br)cc1OCc1ccc2ccccc2c1` here?
**A.** 26 µM

**Q.** With `O=Cc1ncc(Br)cc1OCc1ccc(Cl)c([N+](=O)[O-])c1` as the compound, how does the IC50 read?
**A.** 1 µM

**Q.** Which IC50 does the source give for `O=Cc1ncc(Br)cc1OCc1ccc(Cl)c(Br)c1` here?
**A.** 6 µM

**Q.** For `O=Cc1ncc(Br)cc1OCc1cc(Br)ccc1Cl`, which IC50 is on record?
**A.** 6 µM

**Q.** Which IC50 does the source give for `Cc1ccc(COc2cc(Br)cnc2C=O)cc1[N+](=O)[O-]` here?
**A.** 12 µM

test system: SARS-CoV-2; assay: Antiviral activity against SARS-CoV-2 infected in African green monkey Vero cells assessed as reduction in viral replication incubated for 72 hrs by RT-qPCR analysis; format: functional, organism-based; conditions: Severe acute respiratory syndrome coronavirus 2, Vero

**Q.** For `CCC[C@H](NC(=O)[C@@H]1[C@H]2CCC[C@H]2CN1C(=O)[C@@H](NC(=O)[C@@H](NC(=O)c1cnccn1)C1CCCCC1)C(C)(C)C)C(=O)C(=O)NC1CC1`, which EC50 is on record?
**A.** 1310 nM
